Patent US12594261B2, “Use of heterocyclic derivatives with cardiomyocyte proliferation activity for treatment of heart diseases” (SHANGHAI EAST HOSPITAL (EAST HOSPITAL, TONGJI UNIVERSITY …, priority 2019, dated 2026)
Entries after “also recorded” stand apart in the source; their conditions may differ. Like-named read-outs stand apart in the source and are kept apart here.

What was measured:
[1] = molecular target: T1, human GSK3 beta (Homo sapiens, UniProt P49841); test: GSK3 beta enzyme assay (ADP-Glo); type: biochemical
T1 construct: Recombinant full-length human GSK3 beta (expressed in Sf9 insect cells with an N-terminal His tag); His tag (N); purchased SignalChem G09-10H; host or cells: Sf9 insect cells
Description: 1. GSK3 Beta Enzyme Assay
The ability of compounds to inhibit human GSK3 beta kinase activities was determined using a commercially available ADP-Glo™ Kinase Assay kit (Promega, Cat #V9102) according to the manufacturer's protocol. The ADP-Glo™ Kinase Assay is a luminescent ADP detection assay that provides a universal, homogeneous, high-throughput screening method to measure kinase activity by quantifying the amount of ADP produced during a kinase reaction. The ADP-Glo™ Kinase Assay can be used to monitor the activity of virtually any ADP-generating enzymes (e.g., kinases or ATPases).
Recombinant full-length human GSK3 beta (expressed in Sf9 insect cells with an N-terminal His tag) was purchased from SignalChem (SignalChem, Cat #G09-10H). The GSK3 substrate peptide (sequence: […](pS)EDEEE) was purchased from SignalChem (SignalChem, Cat #G50-58). This assay, run in a 384-well plate format, is a generic method for measuring kinase activities using an ADP-Glo Kinase Assay Kit. The basic assay procedure involves two steps: (1) Enzymatic step: inhibitors are incubated with the kinase and then ATP (included in the ADP-Glo Kinase Assay Kit) and the GSK3 substrate peptide are added to start the enzymatic reaction; (2) Detection step: after the kinase reaction, first ADP-Glo™ Reagent is added to terminate the kinase reaction and deplete the remaining ATP. Second, the Kinase Detection Reagent is added to simultaneously convert ADP to ATP and allow the newly synthesized ATP to be measured using a luciferase/luciferin reaction. The light generated is measured using a luminometer.
Briefly, GSK3 beta (4 nM) in the enzymatic buffer solutions (40 mM Tris, 7.5, 20 mM MgCl2, 0.1 mg/ml BSA, 50 μM DTT) were mixed with various concentrations of inhibitors (dissolved in 100% DMSO). These solutions were incubated for 30 minutes at 25° C., and subsequently a mixture of substrate peptide and ATP was added with the final peptide and ATP concentrations at 13 μM and 25 μM, respectively. The final reaction mixture of enzyme-substrate-ATP-compound was incubated for 60 minutes at 25° C.
Afterwards ADP-Glo™ Reagent was added and the mixture was incubated at 25° C. for 60 minutes. Then Kinase Detection Reagent was added and the final mixture was incubated at 25° C. for 60 minutes. The luminescence signal of the final solution was measured on an Envision instrument (PerkinElmer). The percent (%) inhibition at each concentration of a compound is calculated relative to the luminescence signal in the Max and Min control wells contained within each assay plate. […] The concentrations and percent inhibition values for a test compound are plotted and the concentration of the compound required to achieve 50% inhibition (IC50) is determined with a four-parameter logistic dose response equation.

[2] = system: neonatal rat ventricular myocytes (NRVMs); test: Myocyte proliferation assay (EdU) in neonatal rat ventricular myocytes; type: cell-based; conditions: for activation at 1 µM / activation at 3 µM / activation at 10 µM: Rattus norvegicus, Ventricular myocyte, growth relative to blank myocyte growth without compound added; for activation at 1 µM: 1 uM compound; for activation at 3 µM: 3 uM compound; for activation at 10 µM: 10 uM compound
Description: 1. Isolation of and Culture Neonatal Rat Ventricular Myocytes (NRVMs)
Ventricles from neonatal rats were separated from the atria, cut into small pieces (about 2×2 mm^2) and then dissociated in Ca^2+-free HBSS containing 0.125 mg ml-1 trypsin (Gibco), 10 μg ml-1 DNase II (Sigma) and 0.1 mg ml-1 collagenase type IV (Sigma). The digestion was carried out under constant stirring at 37° C. for 5 min. The supernatant was collected with FBS (Gibco) after each digestion period. After digestion, the collected supernatant was centrifuged at 1000 g for 10 min at room temperature, and then cell pellets were resuspended in DMEM (Gibco) supplemented with 10% FBS and with 100 uM 5-bromo-2′-deoxyuridine (Sigma). The resuspended cells were passed through a cell strainer ([…], BD Falcon) and seeded onto 100-mm plastic dishes for 2 h at 37° C. in a 5% CO2 to remove fibroblasts, the supernatant was then collected and plated onto 1% gelatin (Sigma)-coated dishes. 24 h after the seeding, the medium was changed to DMEM (Gibco) containing 2% FBS (Gibco), 1% insulin-transferrin-selenium (ITS; Gibco), 1% Penicillin-Streptomycin (Gibco). After 24 hours of low serum culture, remove the medium with DMEM (Gibco) containing 6% FBS (Gibco), 1% insulin-transferrin-selenium (ITS; Gibco), 1% Penicillin-Streptomycin (Gibco), different concentrations of compounds (the compounds were pre-diluted in the medium and the drug concentration was 10 uM, 3 uM, 1 uM, fully mixed). After 36 h add Edu substrate (Invitrogen) according to the manufacturer's guidelines, and then after 12 h cell can be used.
2.1. Immobilization: Remove the medium and fix the cells with […] in 200 ul (whichever is covered) for 15 min and wash the cells twice with 500 ul of PBS for 5 min each time.
2.2. Broken membrane: Add 200 ul of 0.3% Triton-X 100 (diluted in PBS) to each well, incubate for 10-15 min at room temperature (the time should not be too long), and wash the cells twice with 500 ul of PBS for 5 min each time.
2.3. Blocking: Add 200 ul of 10% normal goat serum (diluted with 0.1% PBST) to each well, incubate for 1 h at room temperature, and wash twice with 500 ul of 0.1% PBST for 5 min each time.
2.4. Primary antibody: dilute the primary antibody (abcam, ab8295) to blocking solution at a ratio of 1:200, add 100 ul per well, incubate for 1 h at room temperature (may be slightly longer than 2-3 h), wash the cells twice with 500 ul 0.1% PBST for 5 min each time.
2.5. Secondary antibody: Dilute the fluorescently labeled secondary antibody (abcam, ab150117) into blocking solution at a ratio of 1:200, add 100 ul per well, incubate for 1 h at room temperature (the time should not be too long), wash the cells twice with 0.1% PBST for 5 min each time, pay attention to the whole process. Protected from light.
2.6. Edu staining (Invitrogen C10338)
2.6.1 Prepare Click-iT® reaction cocktail according to Table 3. It was important to add the ingredients in the order listed in the table; otherwise, the reaction would not proceed optimally. Use the Click-iT® reaction cocktail within 15 minutes of preparation.
2.6.2 Add 0.1 mL of Click-iT® reaction cocktail to each well containing a coverslip. Rock the plate briefly to ensure that the reaction cocktail is distributed evenly over the coverslip.
2.6.3 Incubate the plate for 30 minutes at room temperature, protected from light.
2.6.4 Remove the reaction cocktail, then wash the cells twice with 0.1% PBST for 5 min each time.
2.7. DAPI staining: DAPI stain was diluted to PBS at a ratio of 1:1000, 100 ul per well, incubated for 30 min at room temperature, and the cells were washed twice with PBS for 5 min each.
We used Molecular Devices' Image Xpress Micro Confocal for high-throughput photo and data analysis.

[3] = system: Myocardial Infarction (left coronary artery ligation); test: In vivo test, myocardial infarction (heart infarct) model; set-up: species or system C57/BL6 mice
Description: 6-week-old C57/BL6 mice were anesthetized with 1% isoflurane in a chamber. The mice were placed in a left supine position on a heating pad (37° C.), and the heart was exposed via thoracotomy at the fourth left intercostal space. The pericardium was then opened, and the left coronary artery was permanently ligated with a 7-0 suture. Ligation was considered successful when the left ventricle became pale. From one week after surgery, the compound L41 or control solvent were injected via tail vein every other day. The mice were then euthanized after 6 weeks of injection, and the hearts were subjected to histology.
2. Injury Region Division
The cardiac tissue regions used for image characterization are described as the whole heart, infarct zone (left ventricle free wall), border zone (left ventricle anterior and posterior walls), or distal zone (interventricular septum).
For histology studies, hearts were collected at the indicated time points. […]
Hearts were sectioned at a thickness of 8 μm, and slides were created with 5 sections per slide. […] Scar size was quantified by examining serial sections from the apex to the ligation site and calculating the average percent fibrotic area of the total area using Image J software based on Masson's trichrome staining.

T1 sequence (P49841 whole entry): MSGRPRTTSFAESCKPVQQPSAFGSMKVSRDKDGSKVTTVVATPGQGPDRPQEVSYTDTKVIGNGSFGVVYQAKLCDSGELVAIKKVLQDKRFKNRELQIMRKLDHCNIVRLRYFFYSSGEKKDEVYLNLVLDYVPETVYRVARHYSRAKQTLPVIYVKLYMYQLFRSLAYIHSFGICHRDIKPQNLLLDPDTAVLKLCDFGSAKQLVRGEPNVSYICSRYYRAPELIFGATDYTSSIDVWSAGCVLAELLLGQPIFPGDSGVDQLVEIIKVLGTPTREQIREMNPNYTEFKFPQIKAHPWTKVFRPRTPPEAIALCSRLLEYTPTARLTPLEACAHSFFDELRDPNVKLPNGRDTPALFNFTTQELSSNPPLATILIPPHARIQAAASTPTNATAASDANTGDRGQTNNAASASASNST

`O=C1/C(=C/c2ccc3c(c2)OCO3)N=C(N(Cc2ccccc2)c2ccccc2)N1Cc1ccccc1` [TJU-B076, (Z)-5-(benzo[d][1,3]dioxol-5-ylmethylene)-3-benzyl-2-(benzyl(phenyl)amino)-3,5-dihydro-4H-imidazol-4-one] was tested. Which IC50 ([1]; read-out: GSK3b IC50) did it give?
The IC50 was over 10 µM.

And the activation at 1 µM [2]?
The activation at 1 µM was under 10%.

And the activation at 3 µM [2]?
The activation at 3 µM was under 10%.

What about the activation at 10 µM [2] of the same compound?
Its activation at 10 µM is over 50%.

For `CN(C1=N/C(=C\c2ccc3c(c2)OCO3)C(=O)N1)c1ccccc1` [TJU-B115, (Z)-5-(benzo[d][1,3]dioxol-5-ylmethylene)-2-(methyl(phenyl)amino)-3,5-dihydro-4H-imidazol-4-one], which IC50 ([1]; read-out: GSK3b IC50) is on record?
The IC50 was over 10 µM.

What about the activation at 1 µM [2] of the same compound?
The activation at 1 µM was under 10%.

What about the activation at 3 µM [2] of the same compound?
The activation at 3 µM was over 50%.

And the activation at 10 µM [2]?
The activation at 10 µM was 10 to 50%.

Which activation at 1 µM [2] does the source give for `O=C1NC(Nc2ccccc2)=N/C1=C\c1ccc2c(c1)OCO2` [Example L41, (Z)-5-(benzo[d][1,3]dioxol-5-ylmethylene)-2-(phenylamino)-3,5-dihydro-4H-imidazol-4-one] here?
Its activation at 1 µM is under 10%.

And the activation at 3 µM [2]?
Its activation at 3 µM is under 10%.

What about the activation at 10 µM [2] of the same compound?
Its activation at 10 µM is under 10%.

What about the “myocyte growth / proliferation (EDU proliferation index), in words” value ([2]; neonatal rat cardiomyocytes, FIGS. 3-5) of the same compound?
The value was “potent agonist for promoting myocyte growth or proliferation; also recorded: promotes myocyte growth; also recorded: promotes proliferation of neonatal rat cardiomyocytes; also recorded: potent activity”.

And the “cardiomyocyte proliferation in the heart infarct model” value ([3]; mouse, in vivo)?
Its value is “superior cardiomyocyte proliferation activity”.

And the “infarct size in the heart infarct model” value ([3]; tail vein injection every other day from one week after surgery, 6 weeks, FIG. 6 and 7)?
Its value is “reduction in infarct size”.

What does the source list for `CCN(C1=N/C(=C\c2ccc3c(c2)OCO3)C(=O)N1)c1ccccc1` [TJU-B182, (Z)-5-(benzo[d][1,3]dioxol-5-ylmethylene)-2-(ethyl(phenyl)amino)-3,5-dihydro-4H-imidazol-4-one]?
IC50 ([1]; read-out: GSK3b IC50): > 10 µM; activation at 1 µM [2]: 10 to 50%; activation at 3 µM [2]: 10 to 50%; activation at 10 µM [2]: 10 to 50%

Which results are given for `CN1C(=O)/C(=C/c2ccc3c(c2)OCO3)N=C1N(C)c1ccccc1` [TJU-B116, (Z)-5-(benzo[d][1,3]dioxol-5-ylmethylene)-3-methyl-2-(methyl(phenyl)amino)-3,5-dihydro-4H-imidazol-4-one]?
IC50 ([1]; read-out: GSK3b IC50): > 10 µM; activation at 1 µM [2]: < 10%; activation at 3 µM [2]: < 10%; activation at 10 µM [2]: < 10%

What does the source list for `CC(=O)N(C1=N/C(=C\c2ccc3c(c2)OCO3)C(=O)N1)c1ccccc1` [TJU-B183, (Z)—N-(4-(benzo[d][1,3]dioxol-5-ylmethylene)-5-oxo-4,5-dihydro-1H-imidazol-2-yl)-N-phenylacetamide]?
IC50 [1]: > 10 µM; activation at 1 µM [2]: < 10%; activation at 3 µM [2]: 10 to 50%; activation at 10 µM [2]: > 50%
